Measured values: patent US8658646B2, “Pyrrolopyrazine kinase inhibitors” (Hoffmann-LaRoche Inc., priority 2011, dated 2014)
Where “and” joins values, the source holds several entries; their conditions need not be identical. Equal entries are not always repeated.

Tests used:
[1] = target: T1, JAK3: Recombinant human kinase domain (Homo sapiens, UniProt P52333); assay: Determination of IC50 of Janus Kinase (JAK) inhibition, radioactive end-point 33P-ATP assay, JAK3; assay type: biochemical; conditions: ATP 1.5 uM, peptide 50 uM, 20 minutes, read-out: JAK3-INHIB-DR/v1~NO ADDITIVE~Enzyme_Conc = 100
T1 construct: JAK3: Recombinant human kinase domain from Millipore (Cat #14-629) or prepared; purchased Millipore 14-629
T1 sequence (P52333 822-1111 limits assumed): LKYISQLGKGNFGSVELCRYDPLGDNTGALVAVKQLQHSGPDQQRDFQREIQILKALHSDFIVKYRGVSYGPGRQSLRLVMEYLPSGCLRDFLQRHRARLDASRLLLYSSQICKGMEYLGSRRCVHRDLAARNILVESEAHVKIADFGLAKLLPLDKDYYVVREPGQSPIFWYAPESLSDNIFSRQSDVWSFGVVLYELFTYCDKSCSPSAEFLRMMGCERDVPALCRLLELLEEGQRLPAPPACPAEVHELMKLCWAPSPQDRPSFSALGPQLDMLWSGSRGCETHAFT

[2] = target: T2, recombinant human SYK360-635 (Homo sapiens, UniProt P43405); assay: Determination of IC50 of Spleen Tyrosine Kinase (SYK) inhibition, 33P ATP filtration assay; assay type: biochemical; conditions: SYK aa 360-635 0.5 nM; ATP 20 μM, peptide 5 μM, 0.1% BSA; read-out: SYK_ENZYME_FILTRATION/v1, BSA
T2 construct: made in house

| IC50 [1] | IC50 [2] | SMILES |
| --- | --- | --- |
| 19.4 nM | 37.3 nM | CC(NC(=O)c1c[nH]c2ncc(-c3nn(C)c4cc(Cl)ccc34)nc12)C(F)(F)F (centres unmarked) [Example I-160, 2-(6-Chloro-1-methyl-1H-indazol-3-yl)-5H-pyrrolo[2,3-b]pyrazine-7-carboxylic acid (2,2,2-trifluoro-1-methyl-ethyl)-amide] |
| 4.59 nM | 8.5 nM | Cn1nc(-c2cnc3[nH]cc(C(=O)N[C@@H]4CCCOC4)c3n2)c2ccc(Cl)cc21 [Example I-139, 2-(6-Chloro-1-methyl-1H-indazol-3-yl)-5H-pyrrolo[2,3-b]pyrazine-7-carboxylic acid (R)-tetrahydro-pyran-3-ylamide] |
| 14.3 nM | 4.5 nM | CC(C)NC(=O)c1c[nH]c2ncc(-c3nn(C)c4ccc(OC(F)F)cc34)nc12 [Example I-283, 2-(5-Difluoromethoxy-1-methyl-1H-indazol-3-yl)-5H-pyrrolo[2,3-b]pyrazine-7-carboxylic acid isopropylamide] |
| 0.725 nM | 22.7 nM | COC[C@H](C)NC(=O)c1c[nH]c2ncc(-c3nn(Cc4ccc(N5CCOCC5)nc4)c4cc(F)ccc34)nc12 [Example I-237, 2-[6-Fluoro-1-(6-morpholin-4-yl-pyridin-3-ylmethyl)-1H-indazol-3-yl]-5H-pyrrolo[2,3-b]pyrazine-7-carboxylic acid ((S)-2-methoxy-1-methyl-ethyl)-amide] |
| 19 nM | 27.2 nM | Cn1nc(-c2cnc3[nH]cc(C(=O)N[C@@H]4CC[C@@H](C#N)C4)c3n2)c2ccc(Cl)cc21 [Example I-36, 2-(6-Chloro-1-methyl-1H-indazol-3-yl)-5H-pyrrolo[2,3-b]pyrazine-7-carboxylic acid ((1R,3R)-3-cyano-cyclopentyl)-amide] |
| 256 nM | 198 nM | Cn1nc(-c2cnc3[nH]cc(C(=O)NC4CCS(=O)(=O)C4)c3n2)c2ccc(Cl)cc21 (centres unmarked) [Example I-113, 2-(6-Chloro-1-methyl-1H-indazol-3-yl)-5H-pyrrolo[2,3-b]pyrazine-7-carboxylic acid (1,1-dioxo-tetrahydro-1λ6-thiophen-3-yl)-amide] |
| 2.86 nM | 10.3 nM | Cn1nc(-c2cnc3[nH]cc(C(=O)N[C@H]4CC[C@@H](O)C4)c3n2)c2ccc(F)cc21 (relative stereo) [Example I-46, 2-(6-Fluoro-1-methyl-1H-indazol-3-yl)-5H-pyrrolo[2,3-b]pyrazine-7-carboxylic acid (cis-3-hydroxy-cyclopentyl)-amide] |
| 5.47 nM | 85.1 nM | Cn1nc(-c2cnc3[nH]cc(C(=O)N[C@@H]4CCC[C@@H](C#N)C4)c3n2)c2ccc(Cl)cc21 (relative stereo) [Example I-156, 2-(6-Chloro-1-methyl-1H-indazol-3-yl)-5H-pyrrolo[2,3-b]pyrazine-7-carboxylic acid (trans-3-cyano-cyclohexyl)-amide] |
| 5.68 nM | 41 nM | CC(C)NC(=O)c1c[nH]c2ncc(-c3nn(C4CNC4)c4cc(F)ccc34)nc12 [Example I-104, 2-(1-Azetidin-3-yl-6-fluoro-1H-indazol-3-yl)-5H-pyrrolo[2,3-b]pyrazine-7-carboxylic acid isopropylamide] |
| 77.7 nM | 4020 nM and > 10000 nM | Cn1nc(-c2cnc3[nH]cc(C(=O)NC4(c5ccc(Br)cc5)CC4)c3n2)c2ccc(F)cc21 [Example I-208, 2-(6-Fluoro-1-methyl-1H-indazol-3-yl)-5H-pyrrolo[2,3-b]pyrazine-7-carboxylic acid [1-(4-bromo-phenyl)-cyclopropyl]-amide] |
| 7.06 nM | 39.8 nM | CC(C)NC(=O)c1c[nH]c2ncc(-c3nn(CCCN(C)C)c4cc(Cl)cc(F)c34)nc12 [Example I-131, 2-[6-Chloro-1-(3-dimethylamino-propyl)-4-fluoro-1H-indazol-3-yl]-5H-pyrrolo[2,3-b]pyrazine-7-carboxylic acid isopropylamide] |
| 13.9 nM | 16 nM | C[C@@H](NC(=O)c1c[nH]c2ncc(-c3nn(C)c4cc(F)ccc34)nc12)C(C)(C)F [Example I-44, 2-(6-Fluoro-1-methyl-1H-indazol-3-yl)-5H-pyrrolo[2,3-b]pyrazine-7-carboxylic acid ((R)-2-fluoro-1,2-dimethyl-propyl)-amide] |
| > 1000 nM | 6370 nM | C[C@H](NC(=O)c1c[nH]c2ncc(-c3nn(C)c4cc(F)ccc34)nc12)c1cccc(OC(F)(F)F)c1 [Example I-253, 2-(6-Fluoro-1-methyl-1H-indazol-3-yl)-5H-pyrrolo[2,3-b]pyrazine-7-carboxylic acid [(S)-1-(3-trifluoromethoxy-phenyl)-ethyl]-amide] |
| 118 nM | 3710 nM | Cn1nc(-c2cnc3[nH]cc(C(=O)N[C@@H]4CCCN(CC(F)(F)F)C4)c3n2)c2ccc(Cl)cc21 [Example I-168, 2-(6-Chloro-1-methyl-1H-indazol-3-yl)-5H-pyrrolo[2,3-b]pyrazine-7-carboxylic acid [(R)-1-(2,2,2-trifluoro-ethyl)-piperidin-3-yl]-amide] |
| > 1000 nM and 536 nM | 54.9 nM | Cn1nc(-c2cnc3[nH]cc(C(=O)NCCN)c3n2)c2ccc(Cl)cc21 [Example I-143, 2-(6-Chloro-1-methyl-1H-indazol-3-yl)-5H-pyrrolo[2,3-b]pyrazine-7-carboxylic acid (2-amino-ethyl)-amide] |
| 217 nM | 205 nM | CC(NC(=O)c1c[nH]c2ncc(-c3nn(C)c4cc(F)ccc34)nc12)C(O)C1CCOCC1 (single isomer, unassigned) [Example I-204, 2-(6-Fluoro-1-methyl-1H-indazol-3-yl)-5H-pyrrolo[2,3-b]pyrazine-7-carboxylic acid [trans-2-hydroxy-1-methyl-2-(tetrahydro-pyran-4-yl)-ethyl]-amide] |
| 10.5 nM | 7.57 nM | C[C@H](O)[C@H](C)NC(=O)c1c[nH]c2ncc(-c3nn(C)c4cc(Cl)ccc34)nc12 (relative stereo) [Example I-201, 2-(6-Chloro-1-methyl-1H-indazol-3-yl)-5H-pyrrolo[2,3-b]pyrazine-7-carboxylic acid (trans-2-hydroxy-1-methyl-propyl)-amide] |
| 3.97 nM | 21.7 nM | Cn1nc(-c2cnc3[nH]cc(C(=O)NC4CCCOC4)c3n2)c2ccc(Cl)cc21 (centres unmarked) [Example I-111, 2-(6-Chloro-1-methyl-1H-indazol-3-yl)-5H-pyrrolo[2,3-b]pyrazine-7-carboxylic acid (tetrahydro-pyran-3-yl)-amide] |
| 141 nM | 127 nM | Cn1nc(-c2cnc3[nH]cc(C(=O)NC(CO)C4CCCO4)c3n2)c2ccc(F)cc21 (centres unmarked) [Example I-190, 2-(6-Fluoro-1-methyl-1H-indazol-3-yl)-5H-pyrrolo[2,3-b]pyrazine-7-carboxylic acid [2-hydroxy-1-(tetrahydro-furan-2-yl)-ethyl]-amide] |
| 3.47 nM | 23.1 nM | Cn1nc(-c2cnc3[nH]cc(C(=O)N[C@@H]4CC[C@H](O)C4)c3n2)c2ccc(Cl)cc21 [Example I-151, 2-(6-Chloro-1-methyl-1H-indazol-3-yl)-5H-pyrrolo[2,3-b]pyrazine-7-carboxylic acid ((1R,3S)-3-hydroxy-cyclopentyl)-amide] |
| 12.6 nM | 29.1 nM | C[C@H](NC(=O)c1c[nH]c2ncc(-c3nn(C)c4cc(Cl)ccc34)nc12)C(C)(C)C#N [Example I-80, 2-(6-Chloro-1-methyl-1H-indazol-3-yl)-5H-pyrrolo[2,3-b]pyrazine-7-carboxylic acid ((S)-2-cyano-1,2,2-trimethyl-ethyl)-amide] |
| 29.3 nM | 83.5 nM | CC(CN1CCC(C#N)C1)NC(=O)c1c[nH]c2ncc(-c3nn(C)c4cc(Cl)ccc34)nc12 (centres unmarked) [Example I-125, 2-(6-Chloro-1-methyl-1H-indazol-3-yl)-5H-pyrrolo[2,3-b]pyrazine-7-carboxylic acid [2-(3-cyano-pyrrolidin-1-yl)-1-methyl-ethyl]-amide] |
| 346 nM | 357 nM | COC[C@H](C)NC(=O)c1c[nH]c2ncc(-n3cnc4ccc(Cl)cc43)nc12 [Example I-224, 2-(6-Chloro-bcnzoimidazol-1-yl)-5H-pyrrolo[2,3-b]pyrazine-7-carboxylic acid ((S)-2-methoxy-1-methyl-ethyl)-amide] |
| 5.46 nM | 324 nM | COC[C@H](C)NC(=O)c1c[nH]c2ncc(-c3nn(CCn4cccn4)c4cc(F)ccc34)nc12 [Example I-244, 2-[6-Fluoro-1-(2-pyrazol-1-yl-ethyl)-1H-indazol-3-yl]-5H-pyrrolo[2,3-b]pyrazine-7-carboxylic acid ((S)-2-methoxy-1-methyl-ethyl)-amide] |
| 0.795 nM | 140 nM | C[C@@H](COC(F)F)NC(=O)c1c[nH]c2ncc(-c3nn(C)c4cc(F)ccc34)nc12 [Example I-193, 2-(6-Fluoro-1-methyl-1H-indazol-3-yl)-5H-pyrrolo[2,3-b]pyrazine-7-carboxylic acid ((S)-2-difluoromethoxy-1-methyl-ethyl)-amide] |
| 60.9 nM | 12.5 nM | CC(C)NC(=O)c1c[nH]c2ncc(-c3nn(C)c4ccc(OC(F)(F)F)cc34)nc12 [Example I-281, 2-(1-Methyl-5-trifluoromethoxy-1H-indazol-3-yl)-5H-pyrrolo[2,3-b]pyrazine-7-carboxylic acid isopropylamide] |
| 2.11 nM | – | C[C@@H](NC(=O)c1c[nH]c2ncc(-c3nn(CC(=O)N4CCOCC4)c4cc(Cl)ccc34)nc12)C(=O)N1CC(C#N)C1 [Example I-228, 2-[6-Chloro-1-(2-morpholin-4-yl-2-oxo-ethyl)-1H-indazol-3-yl]-5H-pyrrolo[2,3-b]pyrazine-7-carboxylic acid [(R)-2-(3-cyano-azetidin-1-yl)-1-methyl-2-oxo-ethyl]-amide] |
